Data on one molecule can be found in patent US10882860B2, “Treatment of osteoarthritis” (Samumed, LLC, priority 2015, dated 2021).

In one data set the test system is nitric oxide release. The data set is described as follows: Immunosuppression in chondrocytes: nitric oxide (Greiss reagent). The format is cell-based, human. The settings on record: cells stimulated with TNF-α and oncostatin M or IL-1β; 72 hours; FIG. 20B. The method, then:
Human MSCs were plated in 10 cm dishes in chondrogenic induction medium (Lonza; DMEM, dexamethasone, ascorbate, insulin-transferrin-selenium [ITS supplement], gentamycin-amphotericin [GA-1000], sodium pyruvate, proline and L-glutamine) and treated with TGF-β3 (20 μg/mL) to induce chondrogenic differentiation. Cells from 4 dishes were pooled and re-plated in 24-well plates in Chondrogenic Induction Medium and treated with various concentrations of the compound of Formula (I). 4 hours later, cells were stimulated by adding TNF-α (20 μg/mL)+Oncostatin M ([…]) or IL-1β (10 μg/mL) and incubated at 37° C., 5% CO2 for 72 hours. Chondrocytes were digested with papain (Sigma). GAG content was measured using the dimethylmethylene blue (DMMB) kit (Chondrex). Briefly, the digested chondrocytes were mixed with DMMB in formate buffer and absorbance at 535 nm was measured using Cytation 3 (Biotek). Nitric oxide was measured using Greiss reagent (Promega) according to manufacturer's protocol.

Data set [1] is classed as in vivo, beagle dogs. The following applies: dog. The method, then:
(§1) The local toxicology of Form 1 of the compound of Formula (I) in dogs was studied. The compound of Formula (I) (Form 1) was administered via single or multiple (9 times) intra-articular (IA) injections as a suspension composition in beagle dogs to evaluate local toxicity.
(§2) After IA injection, the right stifle joint was histologically evaluated for inflammation, cartilage health, bone density, etc. Toxicology was evaluated immediately after a single or multiple (3 or 9 once-monthly) IA injections.

On the set-up of data set [2]: species or system beagle dogs. The following applies: dog, in vivo. How it is done:
as §1, §2
The NOAEL for the compound of Formula (I) in this study was considered to be 116 μg/knee.

The test system of data set [3] is subjects with moderately to severely symptomatic knee OA. The data set is described as follows: Initial clinical study (first cohort, single IA injection). The format is in vivo, human. More on the design: Change in cartilage thickness: unit not given here. The method, then: Twenty-one subjects were enrolled in the first cohort of a clinical trial for the treatment of osteoarthritis. All subjects completed a minimum of 12 weeks of follow-up after treatment. This study was a first-in-human, multicenter, placebo-controlled, single-dose, dose-escalation safety study in subjects suffering from moderately to severely symptomatic knee OA. Subjects were treated with a single ultrasound-guided intra-articular injection of a suspension of a non-stoichiometric hydrate of Form I having between 1% and about 20% by weight water or placebo.
A single-use injectable composition containing the compound of Formula (I) suspended in a 0.5% sodium carboxymethylcellulose and 0.05% polysorbate 80 in 10 mM phosphate buffered saline solution, pH 7.4, was prepared. For this study, a dosage of 0.03-0.230 mg of the compound of Formula (I) was administered per 2 mL injection.
Subjects were evaluated using the following primary and secondary assessments:
1. Evaluation of the safety and tolerability of the therapeutic composition administered by intra-articular injection into the target knee joint of moderately to severely symptomatic osteoarthritis (OA) subjects. This included:
a) monitoring for treatment-emergent adverse events (AEs);
b) assessing bone loss by measuring bone biomarkers (cartilage oligomeric matrix protein [COMP], N-terminal propeptides of procollagen type I [PINP], and β-C-terminal telopeptide [β-CTX]) at Weeks 4 and 12 by computed tomography (CT) of both knee joints and at Week 12 after study medication injection compared to baseline; and
c) assessing bone marrow edema by magnetic resonance imaging (MRI) at Week 12 compared to baseline.
2. Assessment of the pharmacokinetic (PK) behavior of the compound of Formula (I) under the conditions of this study at Days 1, 2, 4, and 12.
Estimation of clinical responses to treatment with the therapeutic composition, including:
a) change from baseline in pain visual analog scale (VAS) score assessed at Weeks 1, 2, 4, 8, and 12;
b) change from baseline in the Western Ontario and McMaster Universities Arthritis Index (WOMAC) assessed at Weeks 1, 2, 4, 8, and 12;
c) change from baseline OA pain as assessed by the WOMAC pain subscale at Weeks 1, 2, 4, 8, and 12;
d) change from baseline OA as assessed by the physician global assessment of disease activity at Weeks 1, 2, 4, 8, and 12;
e) change from baseline in total cartilage volume and thickness in the compartments of the target knee joint as documented by Mill at Week 12;
f) changes from baseline in anabolic or catabolic biomarkers indicative of cartilage synthesis or degradation (cartilage oligomeric matrix protein [COMP], N-terminal propeptides of procollagen type I [PINP], and β-C-terminal telopeptide [(3-CTX]) at Weeks 4 and 12;
g) change from baseline in plasma levels of cytokines related to inflammation (interleukin [IL] 1b, IL6, IL8, tumor necrosis factor (TNF), and interferon-alpha [IFNα]) at Weeks 4 and 12; and
h) change from baseline in bone marrow edema as documented by Mill scan of the target knee at baseline and at Week 12.

The mark [4] stands for this setting: subject Treatment 1, Week 12 vs baseline.
Where [5] appears, read: subject Treatment 2, Week 12 vs baseline.
The mark [6] stands for this setting: subject Treatment 3, Week 12 vs baseline.
Where [7] appears, read: subject Treatment 4, Week 12 vs baseline.

`CC(C)CC(=O)Nc1cncc(-c2ccc3[nH]nc(-c4nc5c(-c6cccc(F)c6)cncc5[nH]4)c3c2)c1` [compound of Formula (I)]: the “release of nitric oxide” value in the data set with nitric oxide release is given as “reduced”. Also, the “finding at the injection site of high-dose animals (synovium and extra-articular tissues)” value in data set [1] (in vivo) is recorded as “local inflammatory response”. For the same molecule, the “no observed adverse effect level (NOAEL)” value in data set [1] (in vivo) is 1.75 mg/knee. For the same molecule, the “histopathological effects in the bone and cartilage” value in data set [1] (single IA injection 0.07, 1.75 and 35 mg) was “no adverse histopathological effects”. The NOAEL in data set [2] was found to be 116 μg/knee. For the same molecule, the “Change in WOMAC score” value in data set [3] (setting [4]) is on record as −56; in data set [3] (setting [5]), −30; in data set [3] (setting [6]) it was −27; in data set [3] (setting [7]), −38. Further, the “Change in cartilage thickness” value turned out to be 1.2 in data set [3] (setting [4]), 1.2 in data set [3] (setting [5]), 1.3 in data set [3] (setting [6]) and 1.44 in data set [3] (setting [7]). Besides, the “Week 12 cartilage thickness (mm)” value is 15.21 mm in data set [3] (subject Treatment 1, baseline 14.01); 13.32 mm in data set [3] (subject Treatment 2, baseline 12.12); 14.52 mm in data set [3] (subject Treatment 3, baseline 13.22); 11.33 mm in data set [3] (subject Treatment 4, baseline 9.89). The “Week 12 WOMAC score” value was 0 in data set [3] (subject Treatment 1, baseline 56); 21 in data set [3] (subject Treatment 2, baseline 51); 32 in data set [3] (subject Treatment 3, baseline 59); 23 in data set [3] (subject Treatment 4, baseline 61).
